Experimental data published in patent publication US7153869B2, “Substituted amino acids as erythropoietin mimetics” (priority 1998, dated 2006).
Read-outs that look alike come from different tables or passages of the source.

Biological target: T1, EBP-Ig (N-terminal 225 amino acids of the human EPO receptor joined to an Ig heavy chain) (Homo sapiens, UniProt P19235)
T1 construct: Ig heavy chain (fusion partner); made in house; host or cells: NSO cells (secreted into conditioned media)
T1 sequence (P19235 25-250 limits assumed): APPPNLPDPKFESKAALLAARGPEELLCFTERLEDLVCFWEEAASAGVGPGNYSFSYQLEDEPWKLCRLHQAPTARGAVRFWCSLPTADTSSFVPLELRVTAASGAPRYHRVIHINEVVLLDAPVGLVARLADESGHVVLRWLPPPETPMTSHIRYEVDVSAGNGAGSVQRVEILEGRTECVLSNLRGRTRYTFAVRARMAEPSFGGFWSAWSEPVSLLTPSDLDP
Test: Inhibition of [125I]EPO binding to immobilized EBP-Ig (EPO binding protein-Ig), scintillation Flash plate competition assay
Settings: for IC30 μM (Inhibition of EPO binding to EBP-Ig): 0–500 μM test compound; for % inh @ 50 μM (Inhibition of EPO binding to EBP-Ig): 50 μM test compound, average % inhibition
Text: The interaction of biotin and streptavidin is frequently employed to capture and effectively immobilize reagents useful in assay protocols and has been employed here as a simple method to capture and immobilize EBP-Ig. EBP-Ig is initially randomly modified with an amine reactive derivative of biotin to produce biotinylated-EBP-Ig. Use of streptavidin coated plates allows the capture of the biotinylated EBP-Ig on the surface of a scintillant impregnated coated well (Flash plates, NEN-DuPont). […] The amount of light produced was quantified to estimate the amount of ligand binding. The specific assay format was suitable for the multi-well plate capacity of a Packard TopCount Microplate Scintillation counter.
Biotinylated EBP-Ig was prepared as follows. EBP-Ig (3 mL, OD280 2.9) was exchanged into 50 mM sodium bicarbonate, pH 8.5 using a Centriprep 10 ultrafiltration device. The final volume of the exchanged protein was 1.2 mL (OD280 2.6, representing about 2 mg total protein). 10 μL of a 4 mg/ml solution of NHS-LC-Biotin (Pierce) was added and the reaction mixture placed on ice in the dark for two hours. Unreacted biotin was removed by exchange of the reaction buffer into PBS in a Centriprep 10 device and the protein reagent aliquoted and stored at −70° C.
All wells were adjusted to a final DMSO concentration of 5%. […] After all additions were made, the plate was covered with an adhesive top seal and placed in the dark at room temperature overnight. The next day all liquid was aspirated from the wells to limit analyte dependent quench of the signal, and the plates were counted on a Packard TOPCOUNT Microplate Scintillation Counter. […] Corrected total binding (CTB) was calculated as: TB−NSB=CTB. […] Table 1 lists the average % inhibition, and if determined the IC50 and IC30 values for compounds of Formula I, where the compound numbers refer to the compounds in the tables accompanying the preparative examples.

[1] = read-out: % inh @ 50 μM (Inhibition of EPO binding to EBP-Ig)
[2] = read-out: EPO/EBP-Ig % inh @ 50 μM, Table 7, 50 μM

| SMILES | IC30 μM (Inhibition of EPO binding to EBP-Ig) (0.5 nM [125I]EPO) [µM] | inhibition at 50 µM [1] [%] | EPO/EBP-Ig % inh @ 50 μM (Table 7, 50 μM) [%] | other results |
| --- | --- | --- | --- | --- |
| O=C(O)CC(C(=O)O)N(C/C=C/c1cccc(Oc2ccccc2)c1)C/C=C/c1cccc(Oc2ccccc2)c1 (stereo not shown) [compound 108] | 23 | 81 |  | inhibition at 50 µM (read-out: EPO/EBP-Ig % inh @ 50 μM, Table 6, 50 μM): 81% |
| COC(=O)C(CCCCNC(=O)OC(C)(C)C)N(Cc1cccc(OCc2ccccc2)c1)Cc1cccc(OCc2ccccc2)c1 (stereo not shown) [compound 109] |  |  | 7 |  |
| COC(=O)C(CCCCN)N(Cc1ccc(OCc2ccccc2)cc1)Cc1ccc(OCc2ccccc2)cc1 (stereo not shown) [compound 110] | 6 | 54 |  | inhibition at 50 µM [2]: 54% |
| COC(=O)C(CCCCN)N(Cc1cccc(OCc2ccccc2)c1)Cc1cccc(OCc2ccccc2)c1 (stereo not shown) [compound 112] | 2 |  | 59 | % inh @ 50 μM (Inhibition of EPO binding to EBP-Ig) (0.5 nM [125I]EPO): 59%; IC50 (read-out: IC50, μM (Inhibition of EPO binding to EBP-Ig), 0.5 nM [125I]EPO, concentration reducing corrected total binding to 50%): 10 µM |
| COC(=O)C(CCCCN)N(Cc1ccc(OCc2ccccc2)cc1)Cc1cccc([N+](=O)[O-])c1 (stereo not shown) [compound 114] | 10 | 37 |  | inhibition at 50 µM [2]: 37% |
| COC(=O)C(CCCCN)N(Cc1ccc(OCc2ccccc2)cc1)Cc1cccc(N)c1 (stereo not shown) [compound 115] |  | 35 |  | inhibition at 50 µM [2]: 35% |
| CCCCC(=O)Nc1cccc(CN(Cc2ccc(OCc3ccccc3)cc2)C(CCCCN)C(=O)OC)c1 (stereo not shown) [compound 116] |  |  | 32 | % inh @ 50 μM (Inhibition of EPO binding to EBP-Ig) (0.5 nM [125I]EPO): 32% |
| COC(=O)C(CCCCN)N(Cc1ccc(OCc2ccccc2)cc1)Cc1cccc(NC(=O)c2ccc(C)cc2)c1 (stereo not shown) [compound 118] | 2 | 36 |  | IC50: 10 µM; inhibition at 50 µM [2]: 36% |
| COC(=O)C(CCCCN)N(Cc1ccc(OCc2ccccc2)cc1)Cc1cccc(NC(=O)C(C)C)c1 (stereo not shown) [compound 119] |  |  | 34 | % inh @ 50 μM (Inhibition of EPO binding to EBP-Ig) (0.5 nM [125I]EPO): 34% |
| COC(=O)C(CCCCN)N(Cc1ccc(OCc2ccccc2)cc1)Cc1cccc(NC(=O)c2ccncc2)c1 (stereo not shown) [compound 120] |  |  | 35 | % inh @ 50 μM (Inhibition of EPO binding to EBP-Ig) (0.5 nM [125I]EPO): 35% |
| COC(=O)C(CCCCN)N(Cc1ccc(OCc2ccccc2)cc1)Cc1cccc(NC(=O)c2ccc3ccccc3c2)c1 (stereo not shown) [compound 121] | 6 |  | 45 | % inh @ 50 μM (Inhibition of EPO binding to EBP-Ig) (0.5 nM [125I]EPO): 45% |
| COC(=O)C(CCCCN)N(C/C=C/c1cccc(Oc2ccccc2)c1)Cc1cccc(Oc2ccccc2)c1 (stereo not shown) [compound 137] | 5 | 60 |  | IC50: 30 µM |
| COC(=O)C(CCCCN)N(C/C=C/c1cccc(Oc2ccc(C(C)(C)C)cc2)c1)Cc1cccc(OCc2ccccc2)c1 (stereo not shown) [compound 139] | 2 | 46 |  | IC50: 10 µM |
| COC(=O)C(CCCCNC(=O)OCc1ccccc1)N(C/C=C/c1ccccc1)C/C=C/c1ccccc1 (stereo not shown) [compound 171] |  |  |  | EPO/EBP-Ig % inh @ 50 μM (50 μM compound, Table 9): nb |
| O=C(NCCCCC(C(=O)O)N(C/C=C/c1ccccc1)C/C=C/c1ccccc1)OCc1ccccc1 (stereo not shown) [compound 172] |  |  |  | EPO/EBP-Ig % inh @ 50 μM (50 μM compound, Table 9): 15% |
| CC(C)(C)OC(=O)C(CCCCNC(=O)OCc1ccccc1)N(C/C=C/c1ccccc1)C/C=C/c1ccccc1 (stereo not shown) [compound 173] |  |  |  | EPO/EBP-Ig % inh @ 50 μM (50 μM compound, Table 9): 5% |
| COC(=O)C(CCCCNC(=O)OCc1ccccc1)N(C/C=C/c1ccc(OC)cc1)C/C=C/c1ccc(OC)cc1 (stereo not shown) [compound 174] |  |  |  | EPO/EBP-Ig % inh @ 50 μM (50 μM compound, Table 9): 23% |
| COC(=O)C(CCCCNC(=O)OCc1ccccc1)N(C/C=C/c1ccc2ccccc2c1)C/C=C/c1ccc2ccccc2c1 (stereo not shown) [compound 175] |  |  |  | EPO/EBP-Ig % inh @ 50 μM (50 μM compound, Table 9): 1% |
